In PubChem BioAssay AID504779 (National Center for Advancing Translational Sciences (NCATS), 2011):

Test system: Caco-2 bidirectional permeability, LC-MS/MS efflux ratio
Assay: Enhancers of SMN2 Splice Variant Expression: Efflux Ratio Profiling
Details: stronger effect = lower value
Description: Spinal muscular atrophy (SMA) is caused by insufficient levels of the survival motor neuron protein SMN. The SMN locus on chromosome 5q13 contains two inverted copies of SMN called SMN1 and SMN2 which are 99% identical at the amino acid level. SMN1 is a fully functional protein and SMN2 skips exon 7 90% of the time. Skipping of exon 7 produces non-functional protein product. 10% of the SMN2 protein includes exon 7 and is fully functional. In the SMA disease state, mutations in the SMN1 locus are the cause of the disease state. Because only 10% of SMN2 is of the fully functional form, it is not sufficient to overcome the deficiency produced by the loss of the SMN1 product. A therapy that either increase the amount of SMN2 product made or to increase the inclusion of exon 7 has been proposed for the treatment of SMA. After screening and medicinal chemistry efforts a probe was identified and is further characterized in this in vitro ADME assay. This bioassays provides profiling data on Caco-2 cell permeability of leads compounds developed for the HPGD project. […]
Prepare 1M HEPES: add 23.83g HEPES to 100ml of 0.85% NaCl Prepare HBSS+ buffer: add 12.8ml of 1M HEPES in 0.85% NaCl to 500ml HBSS buffer. […] The T0, LY and T90, LY plates are read by FlexStation 3 at excitation of 485 nm and emission of 535 nm to determine LY permeability. […]

efflux ratio: 0.4
Compound: O=C(O)C1CCN(c2nc(-c3ccc(Br)cc3)cs2)CC1
